Laboratory results: PMC7002245 (European journal of medicinal chemistry, 2019)
Where two headings read alike, the source gives them in different places.

Legend:
E. coli PQ37 = assay: microbe, parasite or virus in culture; format: cell-based; conditions: Escherichia coli
rhinovirus B5 = format: cell-based; conditions: HeLa cells, CPE inhibition, 72 h post infection; n/a = not active (max 100 μM)
rhinovirus B14 = format: cell-based; conditions: HeLa cells, CPE inhibition, 72 h post infection; n/a = not active (max 100 μM)
[1] = tested on: coxsackievirus B3 97927 I1207K I1092; format: cell-based
[2] = Pharmacokinetic study in mice after intragastric administration; format: in vivo
CYP3A4 = conditions: human, hepatocytes
coxsackievirus B3 Nancy = format: cell-based; conditions: HeLa cells, CPE inhibition, 48 h post infection; n/a = not active (max 100 μM)

For `CN(C)C(=O)c1cc(CCCOc2ccc(-c3noc(C(F)(F)F)n3)cc2C(F)(F)F)on1` [10k, 3-(3-Trifluoromethyl-4-(3-(3-N,N-dimethylcarbamoyl-isoxazol-5-yl)propoxy)phenyl)-5-trifluoromethyl-1,2,4-oxadiazole], the zone of inhibition at 10000 µg/mL (E. coli PQ37) was 0 mm.

For `CNC(=O)c1cc(CCCOc2ccc(-c3noc(C(F)(F)F)n3)cc2C(F)(F)F)on1` [10m, 3-(3-Trifluoromethyl-4-(3-(3-methylcarbamoyl-isoxazol-5-yl)propoxy)phenyl)-5-trifluoromethyl-1,2,4-oxadiazole], the “IC50 towards rhinovirus B5” value (rhinovirus B5) was “did not totally inhibit”, the “IC50 towards rhinovirus B14” value (rhinovirus B14) was “did not totally inhibit” and the “IC50 towards coxsackievirus B3 97927 I1207K I1092” value [1] was “no activity”.

Work on `CNC(=O)c1cc(CCCOc2c(C)cc(-c3noc(C(F)(F)F)n3)cc2C)on1` [10b, 3-(3,5-Dimethyl-4-(3-(3-methylcarbamoyl-isoxazol-5-yl)propoxy)phenyl)-5-trifluoromethyl-1,2,4-oxadiazole] yielded a zone of inhibition at 10000 µg/mL (E. coli PQ37) of 0 mm.

`CN(C)C(=O)c1cc(CCCOc2ccc(-c3noc(C(F)(F)F)n3)cc2[N+](=O)[O-])on1` [10i, 3-(3-Nitro-4-(3-(3-N,N-dimethylcarbamoyl-isoxazol-5-yl)propoxy)phenyl)-5-trifluoromethyl-1,2,4-oxadiazole] showed a zone of inhibition at 10000 µg/mL (E. coli PQ37) of 0 mm.

In the case of `Cc1cc(-c2noc(C(F)(F)F)n2)ccc1OCCCc1cc(C(=O)N(C)C)no1` [10g, 3-(3-Methyl-4-(3-(3-N,N-dimethylcarbamoyl-isoxazol-5-yl)propoxy)phenyl)-5-trifluoromethyl-1,2,4-oxadiazole], the bioavailability ([2]; 100 mg/kg intragastric) was “very high bioavailability”, the CL ([2]; 100 mg/kg single dose intragastric, CL = dose/AUC0-∞) was 0.66 h⁻¹ and the zone of inhibition at 10000 µg/mL (E. coli PQ37) was 0 mm. For the same compound, the “induction of CYP3A4 (fold)” value (CYP3A4; 1 μM) was 1.2 x, the “induction of CYP3A4, % of control” value (CYP3A4; 1 μM) was 3% and the “induction of CYP3A4 (fold)” value (CYP3A4; 10 μM) was 1.4 x. The “induction of CYP3A4, % of control” value (CYP3A4; 10 μM) was 7%.

With `COC(=O)c1cc(CCCOc2c(C)cc(-c3noc(C(F)(F)F)n3)cc2C)on1` [6a, 3-(3,5-Dimethyl-4-(3-(3-carbmethoxy-isoxazol-5-yl)propoxy)phenyl)-5-trifluoromethyl-1,2,4-oxadiazole] the “IC50 towards rhinovirus B5” value (rhinovirus B5) was “no activity”.

In the case of `Cc1cc(CCCOc2c(C)cc(-c3noc(C(F)(F)F)n3)cc2C)on1` [P, pleconaril, reference compound], the “induction of CYP3A4, % of control” value (CYP3A4; 1 μM) was 13% and the “induction of CYP3A4, % of control” value (CYP3A4; 10 μM) was 30%.

In the case of `CCOC(=O)c1cc(CCCOc2ccc(-c3noc(C(F)(F)F)n3)cc2)on1` [6c, 3-(4-(3-(3-Carbethoxy-isoxazol-5-yl)propoxy)phenyl)-5-trifluoromethyl-1,2,4-oxadiazole], the “IC50 towards rhinovirus B5” value (rhinovirus B5) was “inactive”, the “IC50 towards coxsackievirus B3 97927 I1207K I1092” value [1] was “inactive” and the “IC50 towards coxsackievirus B3 Nancy” value (coxsackievirus B3 Nancy) was “inactive”.

Work on `Cc1cc(-c2noc(C(F)(F)F)n2)cc(C)c1OCCCc1cc(C(=O)N(C)C)no1` [10e, 3-(3,5-Dimethyl-4-(3-(3-N,N-dimethylcarbamoyl-isoxazol-5-yl)propoxy)phenyl)-5-trifluoromethyl-1,2,4-oxadiazole] yielded a zone of inhibition at 10000 µg/mL (E. coli PQ37) of 0 mm.
